Measured values taken from patent US7144982B2, “Polypeptides with therapeutic activity and methods of use” (University of Minnesota, priority 2000, dated 2006).
Where two headings read alike, the source gives them in different places. Ends that are not written are not given here.

Legend:
Human red blood cells = assay type: cell-based; conditions: for hemolysis: red cells of human, 1 h
Protocol: Human red blood cells were washed three times using phosphate buffered saline (PBS: 35 mM phosphate buffer, 0.15 M NaCl, pH 7.0) prior to performing the assay. One hundred μL of human red blood cells suspended in 0.4% (v/v) PBS was placed in eppendorf tubes, and 100 μL of serially diluted peptides in PBS was added (peptide concentration ranged from 1 μM to 100 μM). Tubes were incubated for 1 hr at 37° C. and centrifuged at 1000 g for 5 min. One hundred μL aliquots of the supernatant was then transferred to eppendorf tubes, and hemolysis was measured by absorbance at 414 nm. Zero percentage hemolysis and 100% hemolysis were determined in PBS and in 1% Triton-X 100, respectively. The hemolysis percentage was calculated using the following formula: % hemolysis=[(A414 in the peptide solution−A414 in PBS)/(A414 in 1% Triton-X 100−A414 in PBS)]×100.

E. coli J5 = assay: Bactericidal assay, rough strain E. coli J5; assay type: cell-based; conditions: for LD50 bactericidal activity, Gram-neg. rough J5: Table 4, SC-4 variants
From the text: (§1) Pseudomonas aeruginosa type 1 is a clinical, smooth strain isolate serotyped by using the scheme of Homma, Japan. J. Exp. Med. 46, 329–336 (1976) and maintained in the lab by monthly transfer on blood agar plates. E. coli J96, IA2, and H5 are smooth strain, uropathogenic clinical isolates kindly maintained and provided by J. R. Johnson and described in Johnson et al., J. Infect. Disease 173, 920–926 (1996) for J96 and IA2 and in Johnson et al., J. Infect. Disease 173, 746–749 (1996) for H5. J5 is an E. coli rough strain initially referenced by G. R. Siber and discussed in Warren et al., Infect. Immunity 55, 1668–1673 (1987) and is analogous to the smooth strain E. coli 0111:B4 used in the BioWhittaker LAL endotoxin detection and quantitation kit described below. Gram-positive MN8 and MNHO are two patient isolates of Staphylococcus aureus, which were kindly provided by P. M. Schlievert and described in Bohach et al., Rev. Infect. Diseases 11, 75–82 (1989) for MNHO and in Schlievert et al., J. Infect. Diseases 147, 236–242 (1983) for MN8. All cultures are maintained on nutrient agar plates.
(§2) Pyrogen-free solutions were used throughout the assay. Log phase bacteria were obtained by transferring an overnight culture or scraping crystals off −85° C. glycerol stocks of overnight cultures. Bacteria were washed and resuspended in 0.9% sodium chloride with adjustment to an optical density at 650 nm which yields 3×10^8 CFU/ml. Bacteria were then diluted 1:10 in 0.08 M citrate phosphate buffer, pH 7.0 (prepared by mixing 0.08 M citric acid with 0.08 M dibasic sodium phosphate). Bacteria (0.15 ml) were incubated with peptide in a final volume of 1.0 ml of buffer. The assay was done in 17×100 polypropylene tubes in a reciprocal water bath shaker at 37° C. for 30 minutes. Following this 30 minute (min) incubation, 10-fold dilutions were made in 0.9% sodium chloride. Dilutions were done to 10^−4 and 20 μl of each dilution was streaked across an agar plate. Gram-positive organisms were plated on nutrient agar plates containing 2% agar and Gram-negative organisms were plated on MacConkey agar (2%). Plates were incubated overnight at 37° C. and counted the next morning. The dilution containing 10–100 bacteria was counted and the number multiplied by 50 to adjust all counts to the number bacteria killed per milliliter. Peptide concentrations were converted to logarithm base ten and graphed. Bactericidal activity was determined by dose response where LD50 values were determined by best fits of a sigmoidal curve to the dose response data.

[1] = tested on: Pseudomonas aeruginosa type 1; assay: Bactericidal assay, P. aeruginosa (P.a.); assay type: cell-based; conditions: SD about ±30%; for LD50 bactericidal activity, Gram-neg. smooth P.a.: Table 4, SC-4 variants
From the text: as §1, §2

E. coli J96 = assay type: cell-based
From the text: as §1
as §2, with “The assay was done in 17×100 polypropylene tubes in a reciprocal water bath shaker at 37° C. for 30 minutes. Following this 30 minute (min) incubation, 10-fold dilutions were made in 0.9% sodium chloride. Dilutions were done to 10^−4 and 20 μl of each dilution was streaked across an agar plate. Gram-positive organisms were plated on nutrient agar plates containing 2% agar and Gram-negative organisms were plated on MacConkey agar (2%).” left out, “Peptide concentrations were converted to logarithm base ten and graphed.” left out

E. coli H5 = assay: Bactericidal assay, smooth strain E. coli H5; assay type: cell-based; conditions: Table 1, SD about ±30%
From the text: as §1, with “Diseases 11, 75–82 (1989) for MNHO and in Schlievert et al., J. Infect. Diseases 147, 236–242 (1983) for MN8. All cultures are maintained on nutrient agar plates.” left out
(§3) Pyrogen-free solutions were used throughout the assay. […] Plates were incubated overnight at 37° C. and counted the next morning. The dilution containing 10–100 bacteria was counted and the number multiplied by 50 to adjust all counts to the number bacteria killed per milliliter. […] Bactericidal activity was determined by dose response where LD50 values were determined by best fits of a sigmoidal curve to the dose response data.

E. coli IA2 = assay: Bactericidal assay, smooth strain E. coli IA2; assay type: cell-based; conditions: Table 1, SD about ±30%
From the text: as §1, with “Diseases 11, 75–82 (1989) for MNHO and in Schlievert et al., J. Infect. Diseases 147, 236–242 (1983) for MN8. All cultures are maintained on nutrient agar plates.” left out
as §3

[2] = tested on: Staphylococcus aureus MN8; assay: Bactericidal assay, Gram-positive S. aureus MN8; assay type: cell-based; conditions: Table 1, SD about ±30%
From the text: as §1, with “Diseases 11, 75–82 (1989) for MNHO and in Schlievert et al., J. Infect. Diseases 147, 236–242 (1983) for MN8. All cultures are maintained on nutrient agar plates.” left out
as §3

[3] = tested on: Staphylococcus aureus MNHO; assay: Bactericidal assay, Gram-positive S. aureus MNHO; assay type: cell-based; conditions: SD about ±30%
From the text: as §1, §2

E. coli 055:B5 LPS = assay: Limulus amoebocyte lysate assay for LPS neutralization; assay type: biochemical; conditions: for drop in LPS neutralizing activity relative to SC-4: SC-3: relative to either SC-4 or SC-5
From the text: The ability of synthetic peptides to neutralize endotoxin was detected using the chromogenic QCL-1000 kit from BioWhittaker, Inc. (Walkersville, Md.) as described in their protocol. This method is quantitative for Gram-negative bacterial endotoxin (lipopolysaccharide, LPS). In the Limulus amebocyte lysate (LAL) assay, peptides that are active inhibit the LPS-mediated activation of a proenzyme (Young et al., J. Clin. Invest. 51, 1790–1797 (1972)) whose active form would release p-nitroaniline (pNA) from a colorless synthetic substrate (Ac-Ile-Glu-Ala-Arg-pNA), producing a yellow color (pNA) whose absorption is monitored spectrophotometrically at 405–410 nm. The initial rate of enzyme activation is proportional to the concentration of endotoxin present. The concentration of peptide required to bind to LPS and therefore to inhibit the Limulus amoebocyte lysate driven by 0.04 unit (or 0.01 ng) of E. coli 055:B5 LPS (from SIGMA) was determined by dose response.

bacteria = conditions: Alvarez-Bravo et al. 1995; cited from earlier work
[4] = Table 4, SC-4 variants, SD about ±30%, read-out: LPS neutralization IC50
[5] = read-out: IC50 LPS neutralization

Substance | hemolysis (Human red blood cells; 1e-4 M) | LD50 bactericidal activity, Gram-neg. rough J5 (E. coli J5; SD about ±30%) | LD50 bactericidal activity, Gram-neg. smooth P.a. [1] | LD50 bactericidal activity, Gram-positive MNHO ([3]; Table 4, SC-4 variants) | IC50 (E. coli 055:B5 LPS; [4]) [µM] | also measured
ANIKLSVQMKLF-NH2 [SC-1, ANIKLSVQMKLF] | around 70% | – | – | – | – | hemolysis (Human red blood cells; 1e-6 M): 15-30%
ANIKLSVQMKLFKRHLKWKIIVKLNDGRELSLD-NH2 [βpep-25, reference compound] | about 5% | – | – | – | – | –
BG-22: peptide 28 mer having the amino acid sequence from the β-sheet domain of bactericidal/permeability increasing (B/PI) protein (residues 82–108) (NANIKISGKWKAQKRFLKMSGNFDLSI; UniProt P17213 113-139, looked up, fragment) [reference compound] | – | – | – | – | – | LD50 bactericidal activity, Gram neg. rough J5 (E. coli J5; Table 1, E. coli J5, SD about ±30%): 0.09 10^−6 M; LD50 bactericidal activity, Gram neg. smooth P.a. ([1]; Table 1, P. aeruginosa): 0.05 10^−6 M; LD50 bactericidal activity, Gram neg. smooth J96 (E. coli J96; Table 1, E. coli J96, SD about ±30%): 0.52 10^−6 M; LD50 bactericidal activity, Gram neg. smooth H5 (E. coli H5): 0.71 10^−6 M; LD50 bactericidal activity, Gram neg. smooth IA2 (E. coli IA2): 0.32 10^−6 M; LD50 bactericidal activity, Gram-positive MN8 [2]: 0.5 10^−6 M; LD50 bactericidal activity, Gram-positive MNHO ([3]; Table 1, S. aureus MNHO): 0.63 10^−6 M; IC50 (E. coli 055:B5 LPS; Table 1, SD about ±30%, read-out: LPS effect, IC50 for neutralization of LPS): 5 µM
K L F K K H L K W K I I-NH2 [SC-408] | – | 0.003 10^−6 M | 0.07 10^−6 M | 2 10^−6 M | 1000 | LPS neutralization in words (E. coli 055:B5 LPS): does not affect LPS binding; drop in LPS neutralizing activity relative to SC-4 (E. coli 055:B5 LPS): about 500 fold
K L F K R H L K W X I I-NH2 [SC-407] | – | 0.007 10^−6 M | 0.05 10^−6 M | 1 10^−6 M | 3 | LPS neutralization in words (E. coli 055:B5 LPS): essentially no affect
K L F K R H L X W K I I-NH2 [SC-406] | – | 0.005 10^−6 M | 0.05 10^−6 M | 2 10^−6 M | 3 | LPS neutralization in words (E. coli 055:B5 LPS): essentially no affect
K L F K X H L K W K I I-NH2 [SC-409] | – | 0.001 10^−6 M | 0.22 10^−6 M | 0.3 10^−6 M | 3 | LPS neutralization in words (E. coli 055:B5 LPS): nearly full activity
K L F X R H L K W K I I-NH2 [SC-405] | – | 0.006 10^−6 M | 0.17 10^−6 M | 0.4 10^−6 M | 7 | drop in LPS neutralizing activity relative to SC-4 (E. coli 055:B5 LPS): about 3 fold
KIIVKLNDGREL-NH2 [SC-7, KIIVKLNDGREL] | ~15% | – | – | – | – | –
KLFKRHLKWKII-NH2 [SC-4, KLFKRHLKWKII] | ~10% | – | – | – | – | LD50 (E. coli J5; against J5 (Gram-negative bacteria)): 3 nM; LD50 (E. coli J96; J96): 250 nM; concentration below which not hemolytic (Human red blood cells): ≥ 10^−4 M
KLKLLLLLKLK-NH2 [antibacterial peptide of the literature forming channels in bacterial membranes] | – | – | – | – | – | effective antibacterial concentration (bacteria): 100 µM
KLSVQMKLFKRH-NH2 [SC-2, KLSVQMKLFKRH] | ~15% | – | – | – | – | –
KRHLKWKIIVKL-NH2 [SC-5, KRHLKWKIIVKL] | around 70% | – | – | – | – | hemolysis (Human red blood cells; 1e-6 M): 15-30%
LKWKIIVKLNDG-NH2 [SC-6, LKWKIIVKLNDG] | ~15% | – | – | – | – | –
MKLFKRHLKWKI [SC-402, M K L F K R H L K W K I-NH2] | – | 0.005 10^−6 M | 0.07 10^−6 M | 6 10^−6 M | 25 | drop in LPS neutralizing activity relative to SC-4 (E. coli 055:B5 LPS): 12 fold; IC50 (E. coli 055:B5 LPS; [5]): 25 µM
MKLFKRHLKWKIIV [SC-403, M K L F K R H L K W K I I V-NH2] | – | 0.002 10^−6 M | 0.05 10^−6 M | 0.4 10^−6 M | 6 | –
QMKLFKRHLKWK [SC-401, Q M K L F K R H L K W K-NH2] | – | 0.004 10^−6 M | 0.06 10^−6 M | XXX (XXX means not active at concentrations below 1 × 10^−5 M.) | – | drop in LPS neutralizing activity relative to SC-3 (E. coli 055:B5 LPS): 5 fold; drop in LPS neutralizing activity relative to SC-4 (E. coli 055:B5 LPS): 60 fold; IC50 (E. coli 055:B5 LPS; [5]): 126 µM
VKLNDGRELSLD-NH2 [SC-8, VKLNDGRELSLD] | ~10% | – | – | – | – | –
VQMKLFKRHLKW-NH2 [SC-3, VQMKLFKRHLKW] | ~10% | – | – | – | – | –
X L F K R H L K W K I I-NH2 [SC-404] | – | 0.004 10^−6 M | 0.22 10^−6 M | 1 10^−6 M | 7 | drop in LPS neutralizing activity relative to SC-4 (E. coli 055:B5 LPS): about 3 fold
